molecular target: BRD4-BD1 (Homo sapiens (Human), UniProt O60885); assay: BRD4-H4 tetraacetylated peptide inhibition AlphaScreen; assay type: binding; conditions: GST-BRD4-BD1 (aa 44-168) with biotinylated Acetyl-Histone H4 (Lys5, 8, 12, 16) peptide
Procedure: Biological Methods BRD4-H4 Tetraacetylated Peptide Inhibition AlphaScreen
Compounds are diluted in serial dilution 1:5 in assay buffer from 10 mM stock in DMSO (100 μM start concentration) in white OptiPlate-384 (PerkinElmer). A mix consisting of 15 nM GST-BRD4-BD1 protein (aa 44-168) or 150 nM GST-BRD4-BD2 (aa 333-460) and 15 nM biotinylated Acetyl-Histone H4 (Lys5, 8, 12, 16) peptide is prepared in assay buffer (50 mM HEPES pH=7.4; 25 mM NaCl; 0.05% Tween 20; 0.1% bovine serum albumin (BSA); 10 mM dithiothreitol (DTT)). 6 μl of the mix is added to the compound dilutions. Subsequently, 6 μl of premixed AlphaLISA Glutathione Acceptor Beads and AlphaScreen Streptavidin Donor Beads from PerkinElmer (in assay buffer at a concentration of 10 μg/ml each) are added and the samples are incubated for 30 min at RT in the dark (shaking 300 rpm). Afterwards, the signal is measured in a PerkinElmer Envision HTS Multilabel Reader using the AlphaScreen protocol from PerkinElmer. Each plate contains negative controls where biotinylated Acetyl-Histone H4 peptide and GST-BRD4-BD1 or GST-BRD4-BD2 are left out and replaced by assay buffer. Negative control values are entered as low basis value when using the software GraphPad Prism for calculations. Furthermore, a positive control (probe molecule JQ1+ with protein/peptide mix) is pipetted. Determination of IC50 values are carried out using GraphPad Prism 3.03 software (or updates thereof).

Structure (SMILES) | IC50 [nM]
CNc1nc(-c2cn(C)nc2Cc2ccccc2)cn2c(C)nnc12 [Example I-1, 6-(3-benzyl-1-methyl-1H-pyrazol-4-yl)-N,3-dimethyl-[1,2,4]triazolo[4,3-a]pyrazin-8-amine] | 61
CNc1nc(-c2cnn(C)c2Oc2ccccc2)cn2c(C)nnc12 [Example I-2] | 41
Cc1nc(-c2cnn(C)c2Oc2ccccc2)cn2c(C)nnc12 [Example I-3] | 41
CNc1nc(-c2nn(C)c(C)c2Cc2ccccc2)cn2c(C)nnc12 [Example I-4] | 18
CNc1nc(-c2nc(-c3ccccc3)c(C)n2Cc2ccccc2)cn2c(C)nnc12 [II-1, 6-(1-benzyl-5-methyl-4-phenyl-1H-imidazol-2-yl)-N,3-dimethyl-[1,2,4]triazolo[4,3-a]pyrazin-8-amine] | 4
CNc1nc(-c2nc(C)c(C)n2Cc2ccccc2)cn2c(C)nnc12 [II-2] | 15
Cc1nc(-c2cn3c(C)nnc3c(C)n2)n(Cc2ccccc2)c1C [II-3] | 31
Cc1nnc2c(NC3CCN(C)CC3)nc(-c3nc4ccccc4n3Cc3ccccc3)cn12 [III-1, N-[6-(1-benzyl-1H-1,3-benzodiazol-2-yl)-3-methyl-[1,2,4]triazolo[4,3-a]pyrazin-8-yl]-1-methylpiperidin-4-amine] | 7
COCCN1CCC(Nc2nc(-c3nc4ccccc4n3[C@@H](C)c3ccccc3)cn3c(C)nnc23)CC1 [III-2] | 41
COCCN1CCC(Nc2nc(-c3nc4ccccc4n3[C@H](C)c3ccccc3)cn3c(C)nnc23)CC1 [III-3] | 49
COCCN1CCC(Nc2nc(-c3nc4ccccc4n3Cc3ccccc3)cn3c(C)nnc23)CC1 [III-4] | 8
COCCN1CCC(Nc2nc(-c3nc4ccccc4n3Cc3ccc(F)cc3)cn3c(C)nnc23)CC1 [III-5] | 9
COCCN1CCC(Nc2nc(-c3nc4ccccc4n3Cc3ccc(F)c(F)c3)cn3c(C)nnc23)CC1 [III-6] | 9
CNc1nc(-c2nc3ccccc3n2Cc2ccccc2)cn2c(C)nnc12 [III-7] | 22
CNc1nc(-c2nc3cnc(N4CCN(C)CC4)cc3n2Cc2ccccc2)cn2c(C)nnc12 [III-8] | 9
Cc1nc(-c2nc3cnc(N4CCN(C)CC4)cc3n2Cc2ccccc2)cn2c(C)nnc12 [III-9] | 14
CNc1nc(-c2nc3cccnc3n2Cc2ccccc2)cn2c(C)nnc12 [III-10] | 18
CNc1nc(-c2nc3cnc(N4CCN(C)CC4)nc3n2Cc2ccccc2)cn2c(C)nnc12 [III-11] | 9
COCCN1CCC(Nc2nc(-c3nc4ccc(N5CCOCC5)cc4n3Cc3ccccc3)cn3c(C)nnc23)CC1 [III-12] | 7
CNc1nc(-c2nc3ccc(N4CCN(C)CC4)cc3n2Cc2ccccc2)cn2c(C)nnc12 [III-13] | 9

Structure (SMILES) | IC50 [nM]
CNc1nc(-c2nc3ccc(N4CCOCC4)cc3n2Cc2ccccc2)cn2c(C)nnc12 [III-14] | 10
COCCN1CCC(Nc2nc(-c3nc4cc(C5=NNC(=O)CC5C)ccc4n3Cc3ccccc3)cn3c(C)nnc23)CC1 (stereo not drawn) [III-15] | 3
CNc1nc(-c2nc3cc(C4=NNC(=O)CC4C)ccc3n2Cc2ccccc2)cn2c(C)nnc12 (stereo not drawn) [III-16] | 5
CCNc1nc(-c2nc3cnc(N4CCN(C)CC4)cc3n2Cc2ccccc2)cn2c(C)nnc12 [III-17] | 17
Cc1nnc2c(NC(C)C)nc(-c3nc4cnc(N5CCN(C)CC5)cc4n3Cc3ccccc3)cn12 [III-18] | 26
Cc1nnc2c(NC(C)C)nc(-c3nc4cnc(N5CCOC[C@@H]5C)cc4n3[C@@H](C)c3ccccc3)cn12 [III-19] | 38
CNc1nc(-c2nc3cnc(N4CCN(C)CC4)cc3n2Cc2ccccn2)cn2c(C)nnc12 [III-20] | 13
CNc1nc(-c2nc3ccc(N4CCN(C)CC4)cc3n2Cc2ccccn2)cn2c(C)nnc12 [III-21] | 8
CNc1nc(-c2nc3cnc(N4CCOCC4)cc3n2Cc2ccccn2)cn2c(C)nnc12 [III-22] | 3
CNc1nc(-c2nc3ccc(N4CCOCC4)cc3n2Cc2ccccn2)cn2c(C)nnc12 [III-23] | 3
Cc1nnc2c(N[C@@H]3CCOC3)nc(-c3nc4cnc(N5CCOCC5)cc4n3Cc3ccccn3)cn12 [III-24] | 20
CNc1nc(-c2nc3cc(C4CCOCC4)ccc3n2Cc2ccccn2)cn2c(C)nnc12 [III-25] | 11
Cc1nnc2c(NC(C)C)nc(-c3nc4ccc(N5CCOCC5)cc4n3Cc3ccccn3)cn12 [III-26] | 5
Cc1nnc2c(NC(C)C)nc(-c3nc4cnc(N5CCOCC5)cc4n3Cc3ccccn3)cn12 [III-27] | 10
Cc1nnc2c(NC(C)C)nc(-c3nc4cnc(N5CCOCC5)cc4n3Cc3ccc(F)cn3)cn12 [III-28] | 1
Cc1nnc2c(NC(C)C)nc(-c3nc4cnc(N5CCOC[C@H]5C)cc4n3Cc3ccccn3)cn12 [III-29] | 9
Cc1nnc2c(NC(C)C)nc(-c3nc4cnc(N5CCOC[C@@H]5C)cc4n3Cc3ccccn3)cn12 [III-30] | 9
Cc1nnc2c(NC(C)C)nc(-c3nc4cnc(N(C)C)cc4n3Cc3ccccn3)cn12 [III-31] | 13
Cc1nnc2c(NC(C)C)nc(-c3nc4ccc(N(C)C)cc4n3Cc3ccccn3)cn12 [III-32] | 7
Cc1nnc2c(NC(C)C)nc(-c3nc4ccccc4n3Cc3ccccn3)cn12 [III-33] | 20

Structure (SMILES) | IC50 [nM]
COc1ccc2nc(-c3cn4c(C)nnc4c(NC(C)C)n3)n(Cc3ccccn3)c2c1 [III-34] | 45
Cc1ccc2nc(-c3cn4c(C)nnc4c(NC(C)C)n3)n(Cc3ccccn3)c2c1 [III-35] | 15
Cc1cc2c(cn1)nc(-c1cn3c(C)nnc3c(NC(C)C)n1)n2Cc1ccccn1 [III-36] | 28
Cc1nnc2c(NC(C)C)nc(-c3nc4cnccc4n3Cc3ccccn3)cn12 [III-37] | 14
Cc1cccc(Cn2c(-c3cn4c(C)nnc4c(NC(C)C)n3)nc3cnc(N4CCOCC4)cc32)n1 [III-38] | 17
COc1cc2c(cn1)nc(-c1cn3c(C)nnc3c(NC(C)C)n1)n2Cc1ccccn1 [III-39] | 126
Cc1nnc2c(NC(C)C)nc(-c3nc4cnc(C(C)C)cc4n3Cc3ccccn3)cn12 [III-40] | 18
Cc1nnc2c(NC(C)C)nc(-c3nc4cnc(N5CCOC[C@@H]5C)cc4n3[C@@H](C)c3ccccn3)cn12 [III-41] | 74
Cc1nnc2c(NC(C)C)nc(-c3nc4cnc(C(C)C)cc4n3[C@@H](C)c3ccccn3)cn12 [III-42] | 66
Cc1nnc2c(NC(C)C)nc(-c3nc4cnc(C5CCOCC5)cc4n3Cc3ccccn3)cn12 [III-43] | 34
Cc1nnc2c(NC(C)C)nc(-c3nc4ccc(C5CCOCC5)cc4n3Cc3ccccn3)cn12 [III-44] | 32
Cc1nnc2c(NC(C)C)nc(-c3nc4ccc(C5CCOCC5)cc4n3[C@@H](C)c3ccccn3)cn12 [III-45] | 69
Cc1nnc2c(NC(C)C)nc(-c3nc4ccc(C(C)C)cc4n3[C@@H](C)c3ccccn3)cn12 [III-46] | 243
CNc1nc(-c2nc3cnc(N4CCN(C)CC4)cc3n2Cc2cccnc2)cn2c(C)nnc12 [III-47] | 12
CNc1nc(-c2nc3ccc(N4CCN(C)CC4)cc3n2Cc2cccnc2)cn2c(C)nnc12 [III-48] | 8
CNc1nc(-c2nc3cnc(N4CCOCC4)cc3n2Cc2cccnc2)cn2c(C)nnc12 [III-49] | 4
CNc1nc(-c2nc3ccc(N4CCOCC4)cc3n2Cc2cccnc2)cn2c(C)nnc12 [III-50] | 5
Cc1nnc2c(N[C@@H]3CCOC3)nc(-c3nc4cnc(N5CCOCC5)cc4n3Cc3cccnc3)cn12 [III-51] | 13
Cc1cc2c(cn1)nc(-c1cn3c(C)nnc3c(N[C@@H]3CCOC3)n1)n2Cc1cccnc1 [III-52] | 31
CNc1nc(-c2nc3cnc(N4CCN(C)CC4)cc3n2Cc2ccncc2)cn2c(C)nnc12 [III-53] | 12

— patent US9266891B2, “Substituted [1,2,4]triazolo[4,3-A]pyrazines that are BRD4 inhibitors” (Boehringer Ingelheim International GmbH, priority 2012, dated 2016)
